Source: US8940911B2, “Squarylated lactones inhibitors for bacterial biofilm formation” (Syracuse University, priority 2012, dated 2015)

System: DsRed-express-labeled E. coli RP437
Test: Confocal imaging of E. coli biofilms on stainless steel coupons (COMSTAT)
Format: cell-based, Escherichia coli
Settings: 200 μM, 24 h at 37° C., CLSM/COMSTAT
Experimental: The effects of SHLs upon the bacterial biofilm were examined; more specifically, the effect of SHLs upon the biofilm architecture. […] These studies were conducted by static biofilm assays employing crystal violet staining that indicates the total biomass that resides within a biofilm but provides no indication regarding the topology of the biofilms. To elucidate the topological features assumed by the E. coli RP437 biofilm in the presence of SHLs and BF8 48, studies of biofilms consisting of DsRed-express-labeled E. coli RP437 that is fluorescent and can be easily visualized by confocal laser scanning microscopy (CLSM) were performed. […] Further, the stacked images in vinyl-SHL 3 indicating the maximum thickness of the biofilm is considerably smaller than the biofilms in BF8 48 and the untreated E. coli samples. We developed the biofilms consisting of DsRed-express-labeled E. coli on stainless steel coupons (316 L, 1 in×1 in.) for 24 h at 37° C. that were treated with BF8 48 or SHLs or were left untreated. All the samples were analyzed with CLSM (see FIG. 8) and the maximum thickness of biofilms calculated using the COMSTAT software. […] Moreover, butyl-SHL 8 and butoxy-SCPA 46 reduce the biofilm thickness by 38% and 27%, respectively.
An overnight culture of E. coli RP437 pRSH103 grown in LB media (OD600 of 1.0) containing tetracycline (3 μg/mL) was subsequently sub-cultured to an OD600 of 0.04 (1:100 dilution with LB media). To each well in the solvent resistant polypropylene or polystyrene-based 24-well microtiter plates was added 200 μM synthetic molecules in DMSO solution respectively. In addition, to each of the wells containing the known concentrations of synthetic molecules was added 2 mL of the sub-cultured bacteria and the contents in each well were gently mixed. […] The fluorescent emission was detected with a LP 560 nm emission filter. The coupons were gently placed upside down on a microscope cover glass (24×60 mm, No. 2, VWR International LLC, West Chester, Pa., USA) and analyzed with CLSM. […]

| SMILES | reduction of the maximum thickness of biofilm [%] |
| --- | --- |
| CC1=C(Br)/C(=C/Br)OC1=O [BF8 48, reference compound] | 17 |
| CCCCOc1c(NC2CCCC2)c(=O)c1=O [butoxy-SCPA 46] | 27 |
